Reference: US11813305B2, “Endoplasmic reticulum stress as a predictive tool in cancer therapy and a combination therapy for the treatment of cancer” (IMMUNE SYSTEM KEY LTD., priority 2016, dated 2023)
Square brackets hold non-standard residues; d marks the D form. Peptide text beside a SMILES is read from it.

Assay: Safety and tolerability (adverse events, DLT, MTD), phase I study
Format: in vivo, human
From the text: The present clinical study is a formal open label phase I dose escalation study. The primary objective was to determine the maximum tolerated dose (MTD) and safety profile of dTCApFs. Assessments included drug exposure, adverse events (AEs; graded according to the Common Terminology Criteria for Adverse Events (CTCAE), and characterization of dose-limiting toxicities (DLTs). Other objectives included assessment of serum levels of angiogenic factors after dTCApFs administration, pharmacokinetics (PK) and pharmacodynamics (PD) analyses, as well as assessment of receptor staining and tumor response. […]
Subjects with evaluable or measurable disease are assessed according to the response evaluation criteria in solid tumors (RECIST) version 1.1 every 2 cycles, where a cycle is defined as 4 weeks of treatment with three administrations per week. Tumor lesion measurements and changes from baseline are summarized by cycle and dose cohort.

What does the source list for `CC(C)C[C@@H](NC(=O)[C@H](NC(=O)[C@@H](CO)NC(=O)[C@H]1CCCN1C(=O)[C@@H](CC(C)C)NC(=O)[C@@H](Cc1ccccc1)NC(=O)[C@@H](Cc1ccccc1)NC(=O)[C@H](NC(=O)[C@@H](Cc1c[nH]c2ccccc12)NC(=O)[C@H](N)Cc1c[nH]c2ccccc12)[C@H](C)O)[C@H](C)O)C(=O)N[C@H](Cc1c[nH]c2ccccc12)C(=O)N[C@H](CCC(=O)O)C(=O)N[C@H](CCCNC(=N)N)C(=O)N[C@H](CCCCN)C(=O)O` [dTCApFs, Trp Trp Thr Phe Phe Leu Pro Ser Thr Leu Trp Glu Arg Lys] (H-[dW][dW][dT][dF][dF][dL][dP][dS][dT][dL][dW][dE][dR][dK]-OH; N-terminus and C-terminus assumed)?
Adverse event Grade 1: Abdominal pain (6 mg/m^2, n = 3): 0; Adverse event Grade 1: Anemia (6 mg/m^2, n = 3): 3; Adverse event Grade 1: Bowel obstruction (6 mg/m^2, n = 3): 1; Adverse event Grade 1: Dehydration (6 mg/m^2, n = 3): 0; Adverse event Grade 1: Diarrhea (6 mg/m^2, n = 3): 0; Adverse event Grade 1: Fatigue (6 mg/m^2, n = 3): 0; Adverse event Grade 1: GI hemorrhage (6 mg/m^2, n = 3): 1; Adverse event Grade 1: Hypertension (6 mg/m^2, n = 3): 3; Adverse event Grade 1: Increased INR (6 mg/m^2, n = 3): 0; Adverse event Grade 1: Neuropathy (6 mg/m^2, n = 3): 0; Adverse event Grade 1: Vomiting (6 mg/m^2, n = 3): 2; Adverse event Grade 2: ALT increase (6 mg/m^2, n = 3): 0; Adverse event Grade 2: AST increase (6 mg/m^2, n = 3): 0; Adverse event Grade 2: Bilirubin increase (6 mg/m^2, n = 3): 0; Adverse event Grade 2: Cough (6 mg/m^2, n = 3): 0; Adverse event Grade 2: Liver dysfunction (6 mg/m^2, n = 3): 0; Adverse event Grade 2: Pain, leg (6 mg/m^2, n = 3): 0; Adverse event Grade 2: Pain, upper back (6 mg/m^2, n = 3): 0; Adverse event Grade 2: Pruritus (6 mg/m^2, n = 3): 0; Adverse event Grade 2: Urinary tract infection (6 mg/m^2, n = 3): 0; Adverse event Grade 2: Urticaria (6 mg/m^2, n = 3): 0; Adverse event Grade 3: Bilirubin increase (6 mg/m^2, n = 3): 0; Adverse event Grade 3: Bowel obstruction (6 mg/m^2, n = 3): 1; Adverse event Grade 3: Diarrhea (6 mg/m^2, n = 3): 0; Adverse event Grade 3: GI hemorrhage (6 mg/m^2, n = 3): 1; Adverse event Grade 3: Hypertension (6 mg/m^2, n = 3): 2; Adverse event Grade 3: Increased INR (6 mg/m^2, n = 3): 0; Adverse event Grade 4: Vomiting (6 mg/m^2, n = 3): 0; Adverse event Grade 1: Abdominal pain (12 mg/m^2, n = 3): 1; Adverse event Grade 1: Anemia (12 mg/m^2, n = 3): 0; Adverse event Grade 1: Bowel obstruction (12 mg/m^2, n = 3): 0; Adverse event Grade 1: Dehydration (12 mg/m^2, n = 3): 0; Adverse event Grade 1: Diarrhea (12 mg/m^2, n = 3): 2; Adverse event Grade 1: Fatigue (12 mg/m^2, n = 3): 1; Adverse event Grade 1: GI hemorrhage (12 mg/m^2, n = 3): 0; Adverse event Grade 1: Hypertension (12 mg/m^2, n = 3): 1; Adverse event Grade 1: Increased INR (12 mg/m^2, n = 3): 0; Adverse event Grade 1: Neuropathy (12 mg/m^2, n = 3): 1; Adverse event Grade 1: Vomiting (12 mg/m^2, n = 3): 0; Adverse event Grade 2: ALT increase (12 mg/m^2, n = 3): 0; Adverse event Grade 2: AST increase (12 mg/m^2, n = 3): 0; Adverse event Grade 2: Bilirubin increase (12 mg/m^2, n = 3): 0; Adverse event Grade 2: Cough (12 mg/m^2, n = 3): 1; Adverse event Grade 2: Liver dysfunction (12 mg/m^2, n = 3): 0; Adverse event Grade 2: Pain, leg (12 mg/m^2, n = 3): 2; Adverse event Grade 2: Pain, upper back (12 mg/m^2, n = 3): 0; Adverse event Grade 2: Pruritus (12 mg/m^2, n = 3): 0; Adverse event Grade 2: Urinary tract infection (12 mg/m^2, n = 3): 1; Adverse event Grade 2: Urticaria (12 mg/m^2, n = 3): 0; Adverse event Grade 3: Bilirubin increase (12 mg/m^2, n = 3): 0; Adverse event Grade 3: Bowel obstruction (12 mg/m^2, n = 3): 0; Adverse event Grade 3: Diarrhea (12 mg/m^2, n = 3): 1; Adverse event Grade 3: GI hemorrhage (12 mg/m^2, n = 3): 0; Adverse event Grade 3: Hypertension (12 mg/m^2, n = 3): 1; Adverse event Grade 3: Increased INR (12 mg/m^2, n = 3): 0; Adverse event Grade 4: Vomiting (12 mg/m^2, n = 3): 0; Adverse event Grade 1: Abdominal pain (24 mg/m^2, n = 3): 2; Adverse event Grade 1: Anemia (24 mg/m^2, n = 3): 0; Adverse event Grade 1: Bowel obstruction (24 mg/m^2, n = 3): 0; Adverse event Grade 1: Dehydration (24 mg/m^2, n = 3): 0; Adverse event Grade 1: Diarrhea (24 mg/m^2, n = 3): 0; Adverse event Grade 1: Fatigue (24 mg/m^2, n = 3): 0; Adverse event Grade 1: GI hemorrhage (24 mg/m^2, n = 3): 0; Adverse event Grade 1: Hypertension (24 mg/m^2, n = 3): 1; Adverse event Grade 1: Increased INR (24 mg/m^2, n = 3): 0; Adverse event Grade 1: Neuropathy (24 mg/m^2, n = 3): 1; Adverse event Grade 1: Vomiting (24 mg/m^2, n = 3): 0; Adverse event Grade 2: ALT increase (24 mg/m^2, n = 3): 0; Adverse event Grade 2: AST increase (24 mg/m^2, n = 3): 0; Adverse event Grade 2: Bilirubin increase (24 mg/m^2, n = 3): 0; Adverse event Grade 2: Cough (24 mg/m^2, n = 3): 0; Adverse event Grade 2: Liver dysfunction (24 mg/m^2, n = 3): 0
